Reference: patent US4182774A, “Method of inhibiting blood platelet aggregation with 2-amino-3-(5- and 6-)benzoylphenylacetic acids, esters and metal salts thereof” (A. H. Robins Company, Incorporated, priority 1978, dated 1980)

Experiments:
[1] = tested on: Evans Blue-Carrageenan Pleural Effusion; assay: Modification of the Evans Blue-Carrageenan Pleural Effusion Assay (anti-inflammatory activity); assay type: in vivo; conditions: relative to 4-amino-3-benzoylphenylacetic acid; method of Sancilio
Experimental: The prior art (South African Patent 68/4682) discloses 4-amino-3-benzoylphenylacetic acid, m.p. 135°-7° C. The compound was prepared and tested for anti-inflammatory activity by the method of Sancilio referred to immediately hereinabove.

[2] = tested on: collagen-induced platelet aggregation in rabbit plasma; assay: Inhibition of collagen-induced platelet aggregation in rabbit plasma; assay type: cell-based; conditions: Table III
Source text: ^1 Concentration required to inhibit aggregation by 50%.

[3] = tested on: Collagen-Induced Platelet Aggregation; assay: Collagen-induced platelet aggregation after oral dosing of rats (platelet rich plasma 2 h after dose); assay type: in vivo, rat
Experimental: The procedure used is essentially that as described by Born, J. of Phys. […] Rats were orally administered test drugs and after two hours the rats were bled and platelet rich plasma obtained. Collagen was added to the platelet rich plasma to induce platelet aggregation and comparisons were made between control and treated samples.

[4] = tested on: Adenosine Diphosphate-Induced Platelet Aggregation-Rabbit Plasma; assay: In vitro inhibition of adenosine diphosphate-induced platelet aggregation in rabbit plasma; assay type: cell-based; conditions: Table IV, ADP
Source text: Effects on Adenosine Diphosphate-Induced
Platelet Aggregation-Rabbit Plasma

[5] = Table IV comment
[6] = Oryctolagus cuniculus, Platelet, 1.0 mM, read-out: Percent Inhibition
[7] = Table I, 10.00 mg/kg PO, rats, collagen
[8] = Table I, 100.00 mg/kg PO, rats, collagen
[9] = Table I, 31.60 mg/kg PO, rats, collagen

## Nc1cccc(C(=O)c2ccccc2)c1CC(=O)O [2-amino-6-benzoylphenylacetic acid]
[1]
  Anti-inflammatory activity, times the activity of the prior art 4-amino-3-benzoylphenylacetic acid: ~3 times

## CC(=O)Oc1ccccc1C(=O)O [Acetylsalicylic Acid, reference compound]
[2]
  Estimated IC50 (concentration required to inhibit aggregation by 50%): 23 µM
[3]; Table II, 316.0 mg/kg PO, 2 rats
  Percent Reduction in Aggregation: -74%

## Nc1ncnc2c1ncn2[C@@H]1O[C@H](CO)[C@@H](O)[C@H]1O [Adenosine]
[4]; [6]
  inhibition at 1000 µM: 84%

## Nc1c(CC(=O)O)cccc1C(=O)c1ccccc1 [Example 3, 2-Amino-3-benzoylphenylacetic Acid]
[1]
  Anti-inflammatory activity, times the activity of the prior art 4-amino-3-benzoylphenylacetic acid: about 39 times

## Nc1c(CC(=O)O)cc(Cl)cc1C(=O)c1ccccc1 [Example 6, 2-Amino-3-benzoyl-5-chlorophenylacetic Acid Hemihydrate]
[3]; [7]
  Percent Reduction in Aggregation: -36%
[3]; [8]
  Percent Reduction in Aggregation: -76%

## Nc1c(CC(=O)O)cccc1C(=O)c1ccccc1 [Example 8, Sodium 2-amino-3-benzoylphenylacetate Dihydrate]
[2]
  Estimated IC50 (concentration required to inhibit aggregation by 50%): 0.2 µM
  Estimated IC50 (concentration required to inhibit aggregation by 50%), value in parentheses: 0.2 µM
[4]; Oryctolagus cuniculus, Platelet, 0.1 mM, read-out: Percent Inhibition
  inhibition at 100 µM: 4%
[4]; [6]
  inhibition at 1000 µM: 8%
[4]; Oryctolagus cuniculus, Platelet, 10.0 mM, read-out: Percent Inhibition
  inhibition at 10000 µM: 82%
[4]
  Estimated IC50 (Comment): 4000 µM
[3]; Table I, 8.00 mg/kg PO, rats, collagen
  Percent Reduction in Aggregation: -63%
[3]; Table II, 8.0 mg/kg PO, 3 rats
  Percent Reduction in Aggregation: -63%

## CCOC(=O)Cc1cccc(C(=O)c2ccccc2)c1N [Example 9, Ethyl 2-amino-3-benzoylphenylacetate]
[3]; [7]
  Percent Reduction in Aggregation: -49%
[3]; [8]
  Percent Reduction in Aggregation: -75%

## CN(C)c1c(CC(=O)O)cccc1C(=O)c1ccccc1 [Example 12, 2-Dimethylamino-3-benzoylphenylacetic Acid]
[3]; [9]
  Percent Reduction in Aggregation: -56%

## Nc1c(CC(=O)O)cccc1C(=O)c1ccc(Cl)cc1 [Example 14, Sodium 2-amino-3-(4-chlorobenzoyl)phenylacetate Hydrate]
[3]; [9]
  Percent Reduction in Aggregation: -27%
[3]; [8]
  Percent Reduction in Aggregation: -65%

## CC(C(=O)[O-])c1cccc(C(=O)c2ccccc2)c1N.O.[Na+] (stereo not drawn) [Example 15, Sodium 2-amino-3-benzoyl-α-methylphenylacetate Hydrate]
[3]; Table I, 3.00 mg/kg PO, rats, collagen
  Percent Reduction in Aggregation: -56%
[3]; [9]
  Percent Reduction in Aggregation: -48%
[3]; [8]
  Percent Reduction in Aggregation: -76%

## Nc1c(CC(=O)O)cccc1C(=O)c1ccccc1 [Example 16, Potassium 2-amino-3-benzoylphenylacetate Hydrate]
[3]; Table I, 0.20 mg/kg PO, rats, collagen, Hydrate, 0.2 mg/kg
  Percent Reduction in Aggregation: -56%

## COc1ccc(C(=O)c2cccc(CC(=O)O)c2N)cc1 [Example 24, 2-Amino-3-(4-methoxybenzoyl)phenylacetic Acid]
[3]; Table I, 0.00063 mg/kg PO, rats, collagen
  Percent Reduction in Aggregation: -73%
[3]; Table I, 4.00 mg/kg PO, rats, collagen
  Percent Reduction in Aggregation: -88%
[3]; Table I, 25.00 mg/kg PO, rats, collagen
  Percent Reduction in Aggregation: -71%
[3]; [8]
  Percent Reduction in Aggregation: -81%

## Nc1c(CC(=O)O)cccc1C(=O)c1ccccc1 [Example 25, Magnesium 2-amino-3-benzoylphenylacetate Trihydrate]
[3]; Table I, 0.20 mg/kg PO, rats, collagen, Trihydrate, 0.2 mg/kg
  Percent Reduction in Aggregation: -25%

## Nc1c(CC(=O)O)cccc1C(=O)c1ccccc1 [Example 27, Sodium 2-Amino-3-benzoylphenylacetate Hydrate]
[3]; Table I, 0.00032 mg/kg PO, rats, collagen
  Percent Reduction in Aggregation: -76%
[3]; Table I, 1.30 mg/kg PO, rats, collagen
  Percent Reduction in Aggregation: -44%
[3]; Table I, 5.10 mg/kg PO, rats, collagen
  Percent Reduction in Aggregation: -68%
[3]; [8]
  Percent Reduction in Aggregation: -77%

## O=C(O)c1ccccc1Nc1cccc(C(F)(F)F)c1 [Flufenamic Acid]
[2]
  Estimated IC50 (concentration required to inhibit aggregation by 50%): 2 µM

## CCCCC1C(=O)N(c2ccccc2)N(c2ccccc2)C1=O [Phenylbutazone]
[2]
  Estimated IC50 (concentration required to inhibit aggregation by 50%): 150 µM
[4]; Oryctolagus cuniculus, Platelet, 0.4 mM, read-out: Percent Inhibition
  inhibition at 400 µM: 3%
[4]; Oryctolagus cuniculus, Platelet, 0.8 mM, read-out: Percent Inhibition
  inhibition at 800 µM: 2%
[3]; Table II, 50.0 mg/kg PO, 2 rats
  Percent Reduction in Aggregation: -74%

## O=C(O)c1ccccc1O [Salicyclic Acid]
[4]; 0.05 mM
  Percent Inhibition: 7%
[4]; 0.50 mM
  Percent Inhibition: 7%
[4]; 1.0 mM
  Percent Inhibition: 12%
[4]; 10.0 mM
  Percent Inhibition: 20%
[5]
  Comment: solubility precludes higher testing: precludes higher

## Nc1c(CC(=O)[O-])cccc1C(=O)c1ccccc1.[Na+] [sodium 2-amino-3-benzoylphenylacetate]
[1]
  Anti-inflammatory activity, times the activity of the prior art 4-amino-3-benzoylphenylacetic acid: ~48 times
